Results taken from patent US20220162169A1, “6-OXO-1,6-DIHYDROPYRIDAZINE PRODRUG DERIVATIVE, PREPARATION METHOD THEREFOR, AND APPLICATION THEREOF IN MEDICINE” (JIANGSU HENGRUI MEDICINE CO., LTD., priority 2019, published 2022).
In brackets after ≈: the same amount, converted by molar mass. Structures can show the parent of a compound that is named as a salt.

Test: Solubility in PBS solution (pH 7.4) at room temperature
Format: physicochemical
Conditions: for solubility at 24 h: PBS solution (pH 7.4), aqueous buffer, kinetic from dmso stock, PBS pH 7.4, room temperature, 24 hours shaking, 1% DMSO, average of two measurements, read-out: Solubility in PBS pH7.4; for Solubility in the PBS solution (pH 7.4), in words: room temperature, PBS pH 7.4
Description: Test Example 1. Solubility of the Compound of the Present Disclosure in PBS Solution (pH 7.4) at Room Temperature
2.1 Formulation of the PBS solution (pH 7.4): 0.57 g of NaH2PO42.H2O, 5.55 g of Na2HPO4.12H2O and 6.48 g of NaCl were weighed, followed by the addition of ultra-pure water. The pH was adjusted to 7.4±0.05 with 1 M NaOH or 1 M HCl. Water was added until the volume reached 1 L. The PBS solution was stored in a refrigerator at 4° C. (the storage life was 6 months).
2.2 Formulation of the solution of the compound in PBS 7.4: An appropriate amount of the test compound was weighed, and dissolved in DMSO or a mixed solution of DMSO:acetonitrile:ethanol (1:1:1) to obtain a 10 mM stock solution of the test compound. 10 μL of the stock solution of the test compound and 990 μL of the PBS solution (pH 7.4) were precisely measured and placed in a 2 mL sample vial and mixed well, and the DMSO concentration of the final solution was 1% (v/v). This solution was formulated in duplicate, shaken on a plate bed at room temperature for 24 hours, and centrifuged at 5000 rpm for 20 minutes. The supernatant was analyzed by the liquid chromatograph.
2.3 Formulation of the reference solution: 10 μL of the stock solution of the test sample (concentration: 10 mM, dissolved in DMSO) and 990 μL of an organic mixed solvent (usually DMSO:acetonitrile:ethanol=1:1:1) were precisely measured and placed in a 2 mL sample vial, and mixed well to obtain a clear 100 μM sample solution. The solution was filtered through a 0.45 μm organic phase microporous filter membrane, and the filtrate was analyzed by the liquid chromatograph.
Solubility (μM)=peak area of the sample/peak area of the reference*concentration of the reference (μM)*sample solution dilution factor
The average of two measurements was used as the final solubility.

solubility at 24 h [µM]	Solubility in the PBS solution (pH 7.4), in words	SMILES
0.5 (≈ 0.221 µg/mL)	poor	Cc1cc(F)ccc1Oc1cc(C(F)(F)F)c(Cl)cc1C(=O)Nc1cn[nH]c(=O)c1 [Compound 1h, 5-Chloro-2-(4-fluoro-2-methylphenoxy)-N-(6-oxo-1,6-dihydropyridazin-4-yl)-4-(trifluoromethyl)benzamide]
147 (≈ 82 µg/mL)		Cc1cc(F)ccc1Oc1cc(C(F)(F)F)c(Cl)cc1C(=O)Nc1cnn(COC(=O)CC(=O)O)c(=O)c1 [Example 10, 3-((4-(5-Chloro-2-(4-fluoro-2-methylphenoxy)-4-(trifluoromethyl)benzamido)-6-oxopyridazin-1(6H)-yl)methoxy)-3-oxopropanoic acid]
707		Cc1cc(F)ccc1Oc1cc(C(F)(F)F)c(Cl)cc1C(=O)Nc1cnn(COS(=O)(=O)O)c(=O)c1 [Example 8, (4-(5-Chloro-2-(4-fluoro-2-methylphenoxy)-4-(trifluoromethyl)benzamido)-6-oxopyridazin-1(6H)-yl)methyl hydrogen sulfate]
1.26 (≈ 0.581 µg/mL)	poor	[2H]C([2H])([2H])Oc1cc(F)ccc1Oc1cc(C(F)(F)F)c(Cl)cc1C(=O)Nc1cn[nH]c(=O)c1 [Compound 7d, 5-Chloro-2-(4-fluoro-2-(methoxy-d3)phenoxy)-N-(6-oxo-1,6-dihydropyridazin-4-yl)-4-(trifluoromethyl)benzamide]
63.5 (≈ 36.2 µg/mL)		Cc1cc(F)ccc1Oc1cc(C(F)(F)F)c(Cl)cc1C(=O)Nc1cnn(COC(=O)/C=C/C(=O)O)c(=O)c1 [Example 9, (E)-4-((4-(5-Chloro-2-(4-fluoro-2-methylphenoxy)-4-(trifluoromethyl)benzamido)-6-oxopyridazin-1(6H)-yl)methoxy)-4-oxobut-2-enoic acid]
96.2		[2H]C([2H])([2H])Oc1cc(F)ccc1Oc1cc(C(F)(F)F)c(Cl)cc1C(=O)Nc1cnn(COS(=O)(=O)O)c(=O)c1 [Example 12, (4-(5-Chloro-2-(4-fluoro-2-(methoxy-d3)phenoxy)-4-(trifluoromethyl)benzamido)-6-oxopyridazin-1(6H)-yl)methyl hydrogen sulfate]
0.44 (≈ 0.201 µg/mL)	poor	COc1cc(F)ccc1Oc1cc(C(F)(F)F)c(Cl)cc1C(=O)Nc1cn[nH]c(=O)c1 [Compound 6c, 5-Chloro-2-(4-fluoro-2-methoxyphenoxy)-N-(6-oxo-1,6-dihydropyridazin-4-yl)-4-(trifluoromethyl)benzamide]
63.6 (≈ 37.4 µg/mL)		[2H]C([2H])([2H])Oc1cc(F)ccc1Oc1cc(C(F)(F)F)c(Cl)cc1C(=O)Nc1cnn(COC(=O)/C=C/C(=O)O)c(=O)c1 [Example 13, (E)-4-((4-(5-Chloro-2-(4-fluoro-2-(methoxy-d3)phenoxy)-4-(trifluoromethyl)benzamido)-6-oxopyridazin-1(6H)-yl)methoxy)-4-oxobut-2-enoic acid]
